Test: recombinant UMI read abundance after kanamycin selection (control-corrected) (log10(CPM+1)); higher = more efficient recombination; extreme values may be limits of the assay; sequences stand for … in AGTGCAGAGAAAATCGGCCAGTTTTCTCTGCCTGCAGTCCGCATGCCGTGGGACCCCTTGGGTTCTAACCTGTTGCCTAGATTTATGCAGCGGACTGCCTTTCTCCCAAAGTGATAAACCGG…AGGTTGGTTTCACT; site = the 11-nt donor
In short: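 Reported values are log10(CPM+1) from a pooled Escherichia coli screen of donor and donor-binding-loop pairs for the IS621 bridge recombinase. Selection used IPTG (0.07 mM) plus kanamycin, against unselected plating, each in two replicates. Recombinant UMIs were amplified across the donor–target junction, sequenced, converted to CPM, averaged over replicates and scaled by control-derived factors.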
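Further: IS621 bridge recombinase in Escherichia coli cells against a fixed T5 target plasmid.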

Row | Sequence | recombinant UMI read abundance (log10)
1 | CGGCATCCATGGACCGGTTTTCCCGGTAATCCGTATTTGGT (site CGGCATCCTAC) | 0.00636
2 | CGGCATCCATGGACCGGTTTTCCCGGTAATCCGTATTTGTT (site CGGAATCCTAA) | 0
3 | CGGCATCCATGGACCGGTTTTCCCGGTAATCCGTATTTGTT (site CGGCATCCTAA) | 0.467
4 | CGGCATCCATGGACCGGTTTTCCCGGTAATCCGTATTTGTT (site CGGGATCCTAA) | 0.0034
5 | CGGCATCCATGGACCGGTTTTCCCGGTAATCCGTATTTGTT (site CGGTATCCTAA) | 0.0136
6 | CGGCCAACATGGACCGGTTTTCCCGGTAATCCGTATTTGTC (site CGGCCAACTGA) | 1.56
7 | CGGCGCTCATGGACCGGTTTTCCCGGTAATCCGTATTTGAT (site CGGCGCTCTAT) | 2.65
8 | CGGCGTACATGGACCGGTTTTCCCGGTAATCCGTATTTGCT (site CGACGTACTAG) | 1.63
9 | CGGCGTACATGGACCGGTTTTCCCGGTAATCCGTATTTGCT (site CGCCGTACTAG) | 0.201
10 | CGGCGTACATGGACCGGTTTTCCCGGTAATCCGTATTTGCT (site CGGCGTACTAG) | 2.38
11 | CGGCGTACATGGACCGGTTTTCCCGGTAATCCGTATTTGCT (site CGTCGTACTAG) | 0
12 | CGGCGTACATGGACCGGTTTTCCCGGTAATCCGTATTTGTC (site CGGCGTACTGA) | 2.31
13 | CGGCGTGCATGGACCGGTTTTCCCGGTAATCCGTATTTGAC (site CGGCGTGCTGT) | 2.82
14 | CGGCTTCCATGGACCGGTTTTCCCGGTAATCCGTATTTGGA (site CGGCTTCCTTC) | 0.00516
15 | CGGCTTGCATGGACCGGTTTTCCCGGTAATCCGTATTTGCC (site CGGCTTGCTGG) | 0.904
16 | CGGGAAACATGGACCGGTTTTCCCGGTAATCCGTATTTGCA (site CAGGAAACTTG) | 2
17 | CGGGAAACATGGACCGGTTTTCCCGGTAATCCGTATTTGCA (site CCGGAAACTTG) | 1.45
18 | CGGGAAACATGGACCGGTTTTCCCGGTAATCCGTATTTGCA (site CGGGAAACTTG) | 0.914
19 | CGGGAAACATGGACCGGTTTTCCCGGTAATCCGTATTTGCA (site CTGGAAACTTG) | 1.04
20 | CGGGAACCATGGACCGGTTTTCCCGGTAATCCGTATTTGCT (site CGGGAACCTAA) | 0
21 | CGGGAACCATGGACCGGTTTTCCCGGTAATCCGTATTTGCT (site CGGGAACCTAC) | 0
22 | CGGGAACCATGGACCGGTTTTCCCGGTAATCCGTATTTGCT (site CGGGAACCTAG) | 0
23 | CGGGAACCATGGACCGGTTTTCCCGGTAATCCGTATTTGCT (site CGGGAACCTAT) | 0
24 | CGGGAGCCATGGACCGGTTTTCCCGGTAATCCGTATTTGAT (site CGGGAACCTAT) | 0
25 | CGGGAGCCATGGACCGGTTTTCCCGGTAATCCGTATTTGAT (site CGGGACCCTAT) | 0.00515

Row | Sequence | recombinant UMI read abundance (log10)
26 | CGGGAGCCATGGACCGGTTTTCCCGGTAATCCGTATTTGAT (site CGGGAGCCTAT) | 0.266
27 | CGGGAGCCATGGACCGGTTTTCCCGGTAATCCGTATTTGAT (site CGGGATCCTAT) | 0.0423
28 | CGGGAGTCATGGACCGGTTTTCCCGGTAATCCGTATTTGCT (site CGGGAGTCTAG) | 2.6
29 | CGGGAGTCATGGACCGGTTTTCCCGGTAATCCGTATTTGCT (site CGGGAGTCTCG) | 2.06
30 | CGGGAGTCATGGACCGGTTTTCCCGGTAATCCGTATTTGCT (site CGGGAGTCTGG) | 2.26
31 | CGGGAGTCATGGACCGGTTTTCCCGGTAATCCGTATTTGCT (site CGGGAGTCTTG) | 1.47
32 | CGGGAGTCATGGACCGGTTTTCCCGGTAATCCGTATTTGTC (site CGGGAGTCTGA) | 3.19
33 | CGGGAGTCATGGACCGGTTTTCCCGGTAATCCGTATTTGTC (site CGGGAGTCTGC) | 1.37
34 | CGGGAGTCATGGACCGGTTTTCCCGGTAATCCGTATTTGTC (site CGGGAGTCTGG) | 2.03
35 | CGGGAGTCATGGACCGGTTTTCCCGGTAATCCGTATTTGTC (site CGGGAGTCTGT) | 1.9
36 | CGGGCAGCATGGACCGGTTTTCCCGGTAATCCGTATTTGTC (site CGGGCAGCTGA) | 1.93
37 | CGGGCCTCATGGACCGGTTTTCCCGGTAATCCGTATTTGTT (site CGGGCCTCTAA) | 2.54
38 | CGGGGGTCATGGACCGGTTTTCCCGGTAATCCGTATTTGCC (site CGGGAGTCTGG) | 0.865
39 | CGGGGGTCATGGACCGGTTTTCCCGGTAATCCGTATTTGCC (site CGGGCGTCTGG) | 1.7
40 | CGGGGGTCATGGACCGGTTTTCCCGGTAATCCGTATTTGCC (site CGGGGGTCTGG) | 1.86
41 | CGGGGGTCATGGACCGGTTTTCCCGGTAATCCGTATTTGCC (site CGGGTGTCTGG) | 0.6
42 | CGGGTACCATGGACCGGTTTTCCCGGTAATCCGTATTTGAT (site CGGGAACCTAT) | 0
43 | CGGGTACCATGGACCGGTTTTCCCGGTAATCCGTATTTGAT (site CGGGCACCTAT) | 0
44 | CGGGTACCATGGACCGGTTTTCCCGGTAATCCGTATTTGAT (site CGGGGACCTAT) | 0
45 | CGGGTACCATGGACCGGTTTTCCCGGTAATCCGTATTTGAT (site CGGGTACCTAT) | 0.00441
46 | CGGGTGTCATGGACCGGTTTTCCCGGTAATCCGTATTTGTT (site CGGGTGTCTAA) | 3.07
47 | CGGGTTGCATGGACCGGTTTTCCCGGTAATCCGTATTTGAG (site CGGGTTGCTCT) | 1.79
48 | CGGTACTCATGGACCGGTTTTCCCGGTAATCCGTATTTGGC (site CGGTACTCTGC) | 3.19
49 | CGGTAGCCATGGACCGGTTTTCCCGGTAATCCGTATTTGTT (site CGGAATCCTAA) | 0.00596
50 | CGGTAGCCATGGACCGGTTTTCCCGGTAATCCGTATTTGTT (site CGGTAGCCTAA) | 0.237

Row | Sequence | recombinant UMI read abundance (log10)
51 | CGGTCATCATGGACCGGTTTTCCCGGTAATCCGTATTTGCT (site CGATCATCTAG) | 1.07
52 | CGGTCATCATGGACCGGTTTTCCCGGTAATCCGTATTTGCT (site CGCTCATCTAG) | 0
53 | CGGTCATCATGGACCGGTTTTCCCGGTAATCCGTATTTGCT (site CGGACATCTAG) | 0
54 | CGGTCATCATGGACCGGTTTTCCCGGTAATCCGTATTTGCT (site CGGCCATCTAG) | 2.29
55 | CGGTCATCATGGACCGGTTTTCCCGGTAATCCGTATTTGCT (site CGGGCATCTAG) | 0
56 | CGGTCATCATGGACCGGTTTTCCCGGTAATCCGTATTTGCT (site CGGTCATCTAG) | 1.7
57 | CGGTCATCATGGACCGGTTTTCCCGGTAATCCGTATTTGCT (site CGTTCATCTAG) | 0.224
58 | CGGTCCGCATGGACCGGTTTTCCCGGTAATCCGTATTTGCG (site CGGTCCGCTCG) | 0.155
59 | CGGTCTTCATGGACCGGTTTTCCCGGTAATCCGTATTTGCT (site CGATCATCTAG) | 0
60 | CGGTCTTCATGGACCGGTTTTCCCGGTAATCCGTATTTGCT (site CGGTCTTCTAG) | 1.49
61 | CGGTGAGCATGGACCGGTTTTCCCGGTAATCCGTATTTGGA (site CGGTGAGCTTC) | 1.56
62 | CGGTGGACATGGACCGGTTTTCCCGGTAATCCGTATTTGGG (site CGGTGGACTCC) | 0.024
63 | CGTAACCCATGGACCGGTTTTCCCGGTAATCCGTATTTGGC (site CGTAACCCTGC) | 0.629
64 | CGTAACTCATGGACCGGTTTTCCCGGTAATCCGTATTTGTA (site CGTAACTCTTA) | 2.2
65 | CGTAAGACATGGACCGGTTTTCCCGGTAATCCGTATTTGCA (site AGGAAGACTTG) | 0
66 | CGTAAGACATGGACCGGTTTTCCCGGTAATCCGTATTTGCA (site CGTAAGACTTG) | 2.68
67 | CGTAATACATGGACCGGTTTTCCCGGTAATCCGTATTTGGC (site CATAATACTGC) | 0
68 | CGTAATACATGGACCGGTTTTCCCGGTAATCCGTATTTGGC (site CCTAATACTGC) | 0
69 | CGTAATACATGGACCGGTTTTCCCGGTAATCCGTATTTGGC (site CGTAATACTGC) | 1.22
70 | CGTAATACATGGACCGGTTTTCCCGGTAATCCGTATTTGGC (site CTTAATACTGC) | 0
71 | CGTAATACATGGACCGGTTTTCCCGGTAATCCGTATTTGTT (site CGGAATCCTAA) | 0
72 | CGTAATACATGGACCGGTTTTCCCGGTAATCCGTATTTGTT (site CGTAATACTAA) | 0.809
73 | CGTATAACATGGACCGGTTTTCCCGGTAATCCGTATTTGAT (site CGTATAACTAT) | 0.94
74 | CGTCATGCATGGACCGGTTTTCCCGGTAATCCGTATTTGAC (site CGTCATGCTGT) | 1.2
75 | CGTCTTTCATGGACCGGTTTTCCCGGTAATCCGTATTTGCA (site CGTCTTTCTTG) | 0

— the supplement of paper PMC11208160
